According to US20120107601A1, “SYSTEMS AND METHODS OF TEMPLATING USING PARTICLES SUCH AS COLLOIDAL PARTICLES” (President and Fellows of Harvard College, priority 2009, published 2012):

Procedure: To ensure that the introduction of the hydrophobic compounds into the template structure would not lead to rearrangement of the particles in the 3D array, some of the templates were sintered prior to the introduction step. Sintering temperatures between 700 and 1200° C. were used to evaluate the conditions needed to form strong interparticle necks without distorting the initial packed structure. Sintering was accomplished under a O2 gas flow of 0.7 L/min (Thermo Scientific Lindberg Blue M Three-Zone Tube Furnace, Cole-Parmer, Vernon Hills, Ill., USA) applying a dwell time period of 2 hours. Introduction of the hydrophobic compounds into the interstices of the packed array of particles was accomplished by first placing the template on a hot plate at a predetermined temperature and afterwards depositing the powdery hydrophobic compound on the top of the heated template. The temperature of the hot plate was adjusted to enable melting of the hydrophobic compound on the template surface. Once in liquid form, the compound was sucked into the interstices of the template structure by capillary forces. […] After fluid introduction, the templates were removed from the hot plate and cooled in air at ambient temperature. The fluid-introduced templates were finally fractured to enable evaluation of the fluid-introduction efficiency in an electron microscope.
Drug-template composites were prepared in the following manner. Templates were prepared from an aqueous colloidal dispersion using the slip-casting method described previously. After slip-casting, the templates were dried in an oven at 110° C. for 12 hours. The templates were then placed on a hotplate at a temperature approximately 5° C. to 10° C. above the melting point of the drug. A small amount of the raw crystalline drug was placed on the surface of the hot template. As the drug was melted, it was drawn into the template by capillary action. These steps were repeated until the template was filled completely. […] The drug-template composites were prepared for dissolution by mild grinding of the sample with a hand-held mortar and pestle.
The samples were prepared for NMR by the following procedure. Unprocessed, crystalline powders (BASF) were dissolved in deuterated solvents at a concentration of approximately 10 mg/mL and filtered through a 0.2 micrometer PTFE filter to remove any solid impurities before running NMR measurements. Drug-silica composites were ground using a hand-held mortar and pestle, dissolved in deuterated solvents at a (drug) concentration of approximately 10 mg/mL and filtered through a 0.2 micrometer PTFE filter to remove the silica template and any additional solid impurities before running NMR measurements. […] Estradiol was dissolved in deuterated DMSO. […] It is, therefore, to be understood that the foregoing embodiments are presented by way of example only and that, within the scope of the appended claims and equivalents thereto, the invention may be practiced otherwise than as specifically described and claimed. The present invention is directed to each individual feature, system, article, material, kit, and/or method described herein. In addition, any combination of two or more such features, systems, articles, materials, kits, and/or methods, if such features, systems, articles, materials, kits, and/or methods are not mutually inconsistent, is included within the scope of the present invention.

SMILES | stability upon melting | visible color change upon melting and infiltration into the composites | melting without decomposition (introduction of molten compound into templates)
CC(=O)N1CCN(c2ccc(OCC3COC(Cn4ccnc4)(c4ccc(Cl)cc4Cl)O3)cc2)CC1 (centres unmarked) [ketoconazole] | stable upon melting | no visible color change | –
C(=C\c1ccccc1)/CN1CCN(C(c2ccccc2)c2ccccc2)CC1 [cinnarizine] | stable upon melting | – | can be melted without decomposition
CCC(C)n1ncn(-c2ccc(N3CCN(c4ccc(OCC5COC(Cn6cncn6)(c6ccc(Cl)cc6Cl)O5)cc4)CC3)cc2)c1=O (centres unmarked) [itraconazole] | stable upon melting | no visible color change | –
CC(C)OC(=O)C(C)(C)Oc1ccc(C(=O)c2ccc(Cl)cc2)cc1 [fenofibrate] | – | – | can be melted without decomposition
C[C@]12CC[C@@H]3c4ccc(O)cc4CC[C@H]3[C@@H]1CC[C@@H]2O [estradiol] | stable upon melting | no visible color change | –
Clc1ccccc1C(c1ccccc1)(c1ccccc1)n1ccnc1 [chlotrimazole] | stable upon melting | no visible color change | –
